Laboratory results reported in patent US20260232671A1, “PHARMACEUTICAL COMPOSITION FOR LOCAL ADMINISTRATION, PREPARATION METHOD THEREFOR, AND USE THEREOF” (priority 2023, published 2026).

Experiments:
[1] = Preparation of solutions: clear or turbid phenomenon in solvent mixtures; assay type: physicochemical
[2] = test system: freshly excised skin samples from Bama miniature pigs; assay: IVPT, Franz diffusion cells, Example 12; assay type: in vitro ADME; conditions: penetration enhancer 7% in 1% solution, compared with the solution in the blank group
Experimental: The penetrability of the API in the topical formulations was studied using freshly excised skin samples from Bama miniature pigs mounted in Franz diffusion cells. The fresh skin of Bama miniature pigs was depilated and then stored at −20° C. for later use. On the morning of the experiment, the skin was taken out and thawed, and after the transepidermal water loss value of the skin was detected to be less than 30, the skin was ready for use. The skin was cut to a size suitable for placing the pig skin samples between the donor and receiver compartments, and the pig skin samples were placed between the donor and receiver compartments of the Franz diffusion cell. About 60 mg of the sample was evenly applied to the pig skin. The opening of the Franz cell was 3.14 cm^2. 8.0 mL of a receiver solution was used. At 0.5 h, 2 h, […], and 24 h, 1.0 mL of the sample was removed and replaced with a new receiver solution. At 24 h, the skin was collected. The pig skin was treated, the epidermal and dermis layers were separated and extracted with a skin extract solution, and the residual drug amount, drug concentrations in the epidermal and dermis layers, and drug penetration concentration were detected by HPLC.

Compound | preparation of a clear solution ([1]; concentration of dimethyl sulfoxide maintained at a high level, addition of a trace amount of water) | state of the solutions ([1]; concentration of the active ingredient 1%, dimethyl sulfoxide replaced with ethanol, propylene glycol, polyethylene glycol 400, or dimethylformamide) | Phenomenon ([1]; mass %: active ingredient 1, diethylene glycol monoethyl ether 40, dimethylformamide 45, propylene glycol 14) | Phenomenon ([1]; mass %: active ingredient 1, diethylene glycol monoethyl ether 40, ethanol 50, propylene glycol 9) | Phenomenon ([1]; mass %: active ingredient 1, diethylene glycol monoethyl ether 40, polyethylene glycol 400 59) | Phenomenon ([1]; mass %: active ingredient 1, diethylene glycol monoethyl ether 40, propylene glycol 59) | Phenomenon ([1]; mass %: active ingredient 1, dimethyl sulfoxide 10, diethylene glycol monoethyl ether 40, polyethylene glycol 400 49) | Phenomenon ([1]; mass %: active ingredient 1, dimethyl sulfoxide 35, diethylene glycol monoethyl ether 10, glycerol 20, propylene glycol 34) | Phenomenon ([1]; mass %: active ingredient 1, dimethyl sulfoxide 35, diethylene glycol monoethyl ether 30, glycerol 20, propylene glycol 14) | Phenomenon ([1]; mass %: active ingredient 1, dimethyl sulfoxide 40, diethylene glycol monoethyl ether 15, glycerol 20, propylene glycol 14, water 10) | Phenomenon ([1]; mass %: active ingredient 1, dimethyl sulfoxide 40, diethylene glycol monoethyl ether 15, propylene glycol 14, water 30) | Phenomenon ([1]; mass %: active ingredient 1, dimethyl sulfoxide 40, diethylene glycol monoethyl ether 35, propylene glycol 14, water 10) | Phenomenon ([1]; mass %: active ingredient 1, dimethyl sulfoxide 40, diethylene glycol monoethyl ether 40, glycerol 5, propylene glycol 14) | Phenomenon ([1]; mass %: active ingredient 1, dimethylformamide 45, propylene glycol 54) | Phenomenon ([1]; mass %: active ingredient 1, ethanol 45, propylene glycol 54) | Phenomenon ([1]; mass %: active ingredient 1.5, dimethyl sulfoxide 45, diethylene glycol monoethyl ether 40, propylene glycol 13.5) | Phenomenon ([1]; mass %: active ingredient 2, dimethyl sulfoxide 45, diethylene glycol monoethyl ether 40, propylene glycol 12) | skin penetration-enhancing effect [2]
COc1nsc(NC(=O)N2C[C@H]3CC(N(C)c4ncnc5[nH]ccc45)C[C@H]3C2)n1 (stereo partly drawn) [Active ingredient in free base form, (3aR,5s,6aS)—N-(3-methoxy-1,2,4-thiadiazol-5-yl)-5-(methyl(7H-pyrrolo[2,3-d]pyrimidin-4-yl)amino)hexahydrocyclopenta[c]pyrrole-2(1H)-carboxamide] | failed to prepare a clear solution above 1% concentration | suspensions | Turbid | Turbid | Turbid | Turbid | Turbid | Clear | Clear | Turbid | Turbid | Turbid | Clear | Turbid | Turbid | Clear | Clear | 
CC(O)C(=O)O (stereo not shown) [lactic acid] |  |  |  |  |  |  |  |  |  |  |  |  |  |  |  |  |  | relatively good skin penetration-enhancing effect
propylene glycol monocaprylate |  |  |  |  |  |  |  |  |  |  |  |  |  |  |  |  |  | certain skin penetration-enhancing effect
